Assay results from patent publication US20240254119A1 (THIRD HARMONIC BIO, INC., priority 2022, published 2024).
pIC50: −log10 of the molar value.

How the values were obtained:
MDR1 (MDR1-MDCKII cells) = molecular target: T1, MDR1 (MDR1-MDCKII cells) (Homo sapiens, UniProt P08183); assay: Permeability in MDR1-MDCKII cells; assay type: in vitro ADME; conditions: for MDCKII-MDR1: Papp A-B: MDCKII-MDR1, apical to basolateral
T1 construct: host or cells: MDCKII (canine kidney) cells
Method: Exemplary compounds were tested for cell permeability in Caco-2, MDCKII-MDR1 and MDCKII-BCRP cell lines with efflux transporter engagement inferred from the efflux ratios determined. Procedures and results are described below. […] This feature of certain compounds is in part due to efflux transporter engagement. See, for instance, exemplary such compounds included in data tables below.
MDR1-MDCKII cells (obtained from Piet Borst at the Netherlands Cancer Institute) were seeded onto […] membranes (PET) in 96-well insert systems at 2.5×10^5 cells/mL until to 4-7 days for confluent cell monolayer formation.
Test compounds were diluted with the transport buffer (HBSS with 10 mM Hepes, pH7.4) from DMSO stock solution to a concentration of 2.00 μM (DMSO<1%) and applied to the apical or basolateral side of the cell monolayer. Permeation of the test compounds from A to B direction or B to A direction was determined in duplicate. Digoxin was tested at 10.0 μM from A to B direction or B to A direction as well, while nadolol and metoprolol were tested at […] in A to B direction in duplicate. The plate was incubated for 2.5 hours in CO2 incubator at 37±1° C., with 5% CO2 at saturated humidity without shaking. In addition, the efflux ratio of each compound was also determined. Test and reference compounds were quantified by LC-MS/MS analysis based on the peak area ratio of analyte/IS.
After transport assay, Lucifer yellow rejection assay are applied to determine the cell monolayer integrity. Buffers are removed from both apical and basolateral chambers, followed by the addition of 75 μL of 100 μM lucifer yellow in transport buffer and 250 μL transport buffer in apical and basolateral chambers, respectively. The plate is incubated for 30 minutes at 37° C. with 5% CO2 and saturated humidity without shaking. After 30 minutes incubation, 20 μL of lucifer yellow samples are taken from the apical sides, followed by the addition of 60 μL of Transport Buffer. And then 80 μL of lucifer yellow samples are taken from the basolateral sides. The relative fluorescence unit (RFU) of lucifer yellow is measured at 425/528 nm (excitation/emission) with an Envision plate reader.
The apparent permeability coefficient Papp (cm/s) was calculated using the equation: […]
Where dCr/dt is the cumulative concentration of compound in the receiver chamber as a function of time (μM/s); Vr is the solution volume in the receiver chamber (0.075 mL on the apical side, 0.25 mL on the basolateral side); A is the surface area for the transport, i.e. 0.0804 cm^2 for the area of the monolayer; C0 is the initial concentration in the donor chamber (μM). The efflux ratio was calculated using the equation: […]
Where Vd is the volume in the donor chambers (0.075 mL on the apical side, 0.25 mL on the basolateral side); Cd and Cr are the final concentrations of transport compound in donor and receiver chambers, respectively.

wtKIT = molecular target: T2, wtKIT (Homo sapiens, UniProt P10721); assay: HTRF biochemical assay, wtKIT (phosphorylation of a peptide substrate); conditions: Table 4
T2 construct: 1888289AM in the reaction mixtures
Outline: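 wtKIT (5.0 nM) phosphorylating 1 µM FAM-labelled peptide with 400 µM ATP and 10 mM MnCl2 in 100 mM HEPES pH 7.5, 1% DMSO, 3 h at 25 °C. EDTA quench; phosphopeptide detected with anti-phosphotyrosine antibody by HTRF. Enzyme titrated for 10-20% substrate conversion.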

T1 sequence (P08183 whole entry): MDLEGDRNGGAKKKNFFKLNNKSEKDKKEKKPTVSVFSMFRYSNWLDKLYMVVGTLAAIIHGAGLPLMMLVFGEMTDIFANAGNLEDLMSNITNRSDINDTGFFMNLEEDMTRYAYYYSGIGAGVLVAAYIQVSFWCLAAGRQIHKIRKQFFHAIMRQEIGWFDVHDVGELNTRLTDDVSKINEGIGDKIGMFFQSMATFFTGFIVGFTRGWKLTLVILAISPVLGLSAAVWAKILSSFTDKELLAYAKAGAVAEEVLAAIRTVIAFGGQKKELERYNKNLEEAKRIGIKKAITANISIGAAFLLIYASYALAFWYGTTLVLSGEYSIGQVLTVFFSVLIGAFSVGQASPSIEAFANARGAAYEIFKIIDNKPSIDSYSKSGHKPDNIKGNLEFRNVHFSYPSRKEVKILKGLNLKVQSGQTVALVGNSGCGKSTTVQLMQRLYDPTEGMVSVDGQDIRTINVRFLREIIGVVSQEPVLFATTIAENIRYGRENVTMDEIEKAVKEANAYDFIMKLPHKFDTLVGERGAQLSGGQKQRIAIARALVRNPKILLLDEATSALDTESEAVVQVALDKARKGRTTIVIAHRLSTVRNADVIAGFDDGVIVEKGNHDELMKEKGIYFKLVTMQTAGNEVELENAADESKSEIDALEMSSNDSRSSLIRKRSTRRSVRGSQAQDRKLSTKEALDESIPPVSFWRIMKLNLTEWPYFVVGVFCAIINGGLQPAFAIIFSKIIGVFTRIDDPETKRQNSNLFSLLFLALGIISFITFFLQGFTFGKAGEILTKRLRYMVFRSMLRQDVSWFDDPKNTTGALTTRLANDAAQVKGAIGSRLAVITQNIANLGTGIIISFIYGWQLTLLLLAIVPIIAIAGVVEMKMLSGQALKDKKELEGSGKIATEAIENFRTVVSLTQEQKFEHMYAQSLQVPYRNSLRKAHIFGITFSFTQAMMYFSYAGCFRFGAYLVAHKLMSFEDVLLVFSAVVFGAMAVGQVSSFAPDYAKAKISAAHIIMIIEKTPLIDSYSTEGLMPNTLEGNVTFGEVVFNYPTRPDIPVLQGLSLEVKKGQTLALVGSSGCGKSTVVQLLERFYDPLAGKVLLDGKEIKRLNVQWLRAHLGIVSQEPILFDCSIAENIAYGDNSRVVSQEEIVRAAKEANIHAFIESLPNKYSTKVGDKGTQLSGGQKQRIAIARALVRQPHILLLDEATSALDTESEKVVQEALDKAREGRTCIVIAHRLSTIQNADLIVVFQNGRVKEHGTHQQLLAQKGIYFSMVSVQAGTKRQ
T2 sequence (P10721 26-976): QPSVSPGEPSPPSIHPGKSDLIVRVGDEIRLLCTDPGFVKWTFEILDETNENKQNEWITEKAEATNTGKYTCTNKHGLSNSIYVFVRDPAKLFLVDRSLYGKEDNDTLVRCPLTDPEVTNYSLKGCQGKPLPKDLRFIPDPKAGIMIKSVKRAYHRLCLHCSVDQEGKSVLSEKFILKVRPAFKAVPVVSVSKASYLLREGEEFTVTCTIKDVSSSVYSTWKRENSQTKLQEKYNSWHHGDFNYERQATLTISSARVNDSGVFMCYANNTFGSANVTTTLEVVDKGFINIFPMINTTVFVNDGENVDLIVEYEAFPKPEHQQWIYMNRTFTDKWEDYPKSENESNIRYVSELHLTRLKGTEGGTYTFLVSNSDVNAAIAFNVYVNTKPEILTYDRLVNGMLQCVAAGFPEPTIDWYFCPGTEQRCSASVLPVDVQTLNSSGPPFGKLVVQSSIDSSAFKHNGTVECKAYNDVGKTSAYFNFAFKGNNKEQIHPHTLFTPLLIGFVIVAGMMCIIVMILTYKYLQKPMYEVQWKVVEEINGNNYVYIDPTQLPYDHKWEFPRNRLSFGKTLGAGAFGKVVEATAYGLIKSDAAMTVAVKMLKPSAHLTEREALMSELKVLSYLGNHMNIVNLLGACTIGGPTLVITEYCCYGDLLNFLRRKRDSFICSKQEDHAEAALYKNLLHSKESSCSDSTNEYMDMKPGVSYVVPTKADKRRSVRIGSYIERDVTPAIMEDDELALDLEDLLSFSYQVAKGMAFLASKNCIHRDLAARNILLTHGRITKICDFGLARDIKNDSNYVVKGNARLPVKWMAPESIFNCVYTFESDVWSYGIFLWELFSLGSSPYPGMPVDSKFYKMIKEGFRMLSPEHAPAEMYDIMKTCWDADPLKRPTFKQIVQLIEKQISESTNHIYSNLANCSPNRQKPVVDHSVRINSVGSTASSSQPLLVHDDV

Row | SMILES | MDCKII-MDR1: Efflux Ratio (MDR1 (MDR1-MDCKII cells)) | MDCKII-MDR1: Papp A-B (MDR1 (MDR1-MDCKII cells)) | pIC50 (wtKIT)
1 | Cc1ccc(-c2noc(C3CCC(F)C3)n2)cc1NC(=O)c1cnc2ccccn12 (racemic) [Compound I-319] | 0.76 | 10 10^−6 cm/s | –
2 | Cc1ccc(-c2noc([C@H]3CCC(=O)N3)n2)cc1NC(=O)c1cnc2ccccn12 (racemic) [Compound I-327] | 38.7 | 0.78 10^−6 cm/s | –
3 | Cc1ccc(-c2noc(C3(C)CC(F)(F)CN3)n2)cc1NC(=O)c1cnc2ccccn12 (racemic) [Compound I-328] | 0.93 | 20.8 10^−6 cm/s | –
4 | Cc1ccc(-c2noc(CC(C)O)n2)cc1NC(=O)c1cnc2ccccn12 (racemic) [Compound I-363] | 2.01 | 13 10^−6 cm/s | –
5 | Cc1ccc(-c2noc(C(C)O)n2)cc1NC(=O)c1cnc2ccccn12 (racemic) [Compound I-364] | 2.02 | 16 10^−6 cm/s | –
6 | Cc1ccc(-c2noc(C3CCC3F)n2)cc1NC(=O)c1cnc2ccccn12 (racemic) [Compound I-376] | 0.54 | 8.41 10^−6 cm/s | –
7 | Cc1ccc(-c2noc(C3CCS(=O)(=O)C3)n2)cc1NC(=O)c1cnc2ccccn12 (racemic) [Compound I-389] | 10.9 | 3.53 10^−6 cm/s | –
8 | Cc1ccc(-c2noc(C3CCN3)n2)cc1NC(=O)c1cnc2ccccn12 (racemic) [Compound I-394] | 3.08 | 6.21 10^−6 cm/s | 6.30 to 7.30
9 | COc1ccn2c(C(=O)Nc3cc(-c4noc(CC(O)C(F)F)n4)ccc3C)cnc2c1 (single isomer, unassigned) [Compound I-76] | – | – | ≥ 7.30
10 | COC(=O)N1CC(c2nc(-c3ccc(C)c(NC(=O)c4cnc5cc(O[C@@H](C)CO)ccn45)c3)no2)C1 (single isomer, unassigned) [Compound I-217] | – | – | ≥ 7.30
11 | Cc1ccc(-c2noc(C(C)NS(C)(=O)=O)n2)cc1NC(=O)c1cnc2ccccn12 (single isomer, unassigned) [Compound I-237] | 20.5 | 1.43 10^−6 cm/s | 6.30 to 7.30
12 | Cc1ccc(-c2noc(C(C)NS(C)(=O)=O)n2)cc1NC(=O)c1cnc2ccccn12 (single isomer, unassigned) [Compound I-238] | – | – | 6.30 to 7.30
13 | Cc1ccc(-c2noc([C@H]3C[C@@H]3F)n2)cc1NC(=O)c1cnc2cc(COCC(C)(C)O)ccn12 [Compound I-71, N-[5-[5-[(1R,2S)-2-fluorocyclopropyl]-1,2,4-oxadiazol-3-yl]-2-methyl-phenyl]-7-[(2-hydroxy-2-methyl-propoxy)methyl]imidazo[1,2-a]pyridine-3-carboxamide] | – | – | ≥ 7.30
14 | COCCOCc1ccn2c(C(=O)Nc3cc(-c4noc([C@H]5C[C@@H]5F)n4)ccc3C)cnc2c1 [Compound I-84] | 1.78 | 12.1 10^−6 cm/s | ≥ 7.30
15 | Cc1ccc(-c2noc([C@H]3C[C@@H]3F)n2)cc1NC(=O)c1cnc2cc(OC(F)(F)F)ccn12 [Compound I-87] | 0.74 | 4.58 10^−6 cm/s | 6.30 to 7.30
16 | Cc1ccc(-c2noc([C@H]3C[C@@H]3F)n2)cc1NC(=O)c1cnc2cc(OC(C)C)ccn12 [Compound I-88] | 0.86 | 3.92 10^−6 cm/s | ≥ 7.30
17 | COc1ccn2c(C(=O)Nc3cc(-c4noc(CC5CC(F)(F)C5)n4)ccc3C)cnc2c1 [Compound I-91] | – | – | ≥ 7.30
18 | CCOc1ccn2c(C(=O)Nc3cc(-c4noc([C@H]5C[C@@H]5F)n4)ccc3C)cnc2c1 [Compound I-93] | – | – | ≥ 7.30
19 | COc1ccn2c(C(=O)Nc3cc(-c4noc(C[C@H](C)O)n4)ccc3C)cnc2c1 [Compound I-94] | – | – | ≥ 7.30
20 | COc1ccn2c(C(=O)Nc3cc(-c4noc(C5CC(F)(F)C5)n4)ccc3C)cnc2c1 [Compound I-96] | – | – | ≥ 7.30
21 | Cc1ccc(-c2noc([C@H]3C[C@@H]3F)n2)cc1NC(=O)c1cnn2ccccc12 [Compound I-109] | – | – | ≥ 7.30
22 | COc1ccc2ncc(C(=O)Nc3cc(-c4noc(C[C@@H](C)O)n4)ccc3C)n2c1 [Compound I-119] | – | – | ≥ 7.30

Row | SMILES | MDCKII-MDR1: Efflux Ratio (MDR1 (MDR1-MDCKII cells)) | MDCKII-MDR1: Papp A-B (MDR1 (MDR1-MDCKII cells)) | pIC50 (wtKIT)
23 | Cc1ccc(-c2noc(CC(O)C(F)F)n2)cc1NC(=O)c1cnc2ccccn12 (stereo not drawn) [Compound I-122] | – | – | ≥ 7.30
24 | Cc1ccc(-c2noc(C3COC3)n2)cc1NC(=O)c1cnc2ccccn12 [Compound I-138] | 1.01 | 22 10^−6 cm/s | –
25 | Cc1nc(-c2ccc(Cl)c(NC(=O)c3cnc4ccccn34)c2)no1 [Compound I-172] | 0.46 | 22.7 10^−6 cm/s | –
26 | Cc1nc(-c2ccc(C)c(NC(=O)c3cnc4ccc(N(C)C)cn34)c2)no1 [Compound I-205] | – | – | ≥ 7.30
27 | Cc1ccc(-c2cnc(N3CC(F)(F)C3)o2)cc1NC(=O)c1cnc2ccccn12 [Compound I-213] | – | – | 6.30 to 7.30
28 | COCCS(=O)(=O)N1CC(c2nc(-c3ccc(C)c(NC(=O)c4cnc5ccccn45)c3)no2)C1 [Compound I-235] | – | – | 6.30 to 7.30
29 | COC(=O)N1CC(c2nc(-c3ccc(C)c(NC(=O)c4cnc5cc(OC[C@H](C)O)ccn45)c3)no2)C1 [Compound I-262] | – | – | ≥ 7.30
30 | COC(=O)N1CC(c2nc(-c3ccc(C)c(NC(=O)c4cnc5cc(OC[C@@H](C)O)ccn45)c3)no2)C1 [Compound I-263] | – | – | ≥ 7.30
31 | Cc1ccc(-c2noc([C@@H](C)O)n2)cc1NC(=O)c1cnc2ccccn12 [Compound I-270] | 1.73 | 17.2 10^−6 cm/s | –
32 | Cc1ccc(-c2noc([C@H](C)O)n2)cc1NC(=O)c1cnc2ccccn12 [Compound I-271] | 1.36 | 18.5 10^−6 cm/s | –
33 | COC(=O)N1CC(c2nc(-c3ccc(C)c(NC(=O)c4cnn5ccc(Br)cc45)c3)no2)C1 [Compound I-280] | 1.19 | 11.8 10^−6 cm/s | –
34 | CNC(=O)N1CC(c2nc(-c3ccc(C)c(NC(=O)c4cnc5ccccn45)c3)no2)C1 [Compound I-282] | 70.3 | 0.47 10^−6 cm/s | –
35 | Cc1ccc(-c2noc(C3CN(C(=O)CO)C3)n2)cc1NC(=O)c1cnc2ccccn12 [Compound I-287] | 27.9 | 0.83 10^−6 cm/s | –
36 | CCCNc1ccn2c(C(=O)Nc3cc(-c4noc([C@H]5C[C@@H]5F)n4)ccc3C)cnc2c1 [Compound I-304] | 1.08 | 3.65 10^−6 cm/s | –
37 | Cc1ccc(-c2noc(C3(N)CC4(CC(F)(F)C4)C3)n2)cc1NC(=O)c1cnc2ccccn12 [Compound I-307] | 1.93 | 8.84 10^−6 cm/s | –
38 | Cc1ccc(-c2noc(CC(=O)O)n2)cc1NC(=O)c1cnc2ccccn12 [Compound I-335] | – | – | 6.30 to 7.30
39 | O=C(Nc1cc(-c2noc([C@H]3C[C@@H]3F)n2)ccc1Cl)c1cnc2ccccn12 [Compound I-341] | 0.82 | 17.7 10^−6 cm/s | –
40 | Cc1nc(-c2ccc(C)c(NC(=O)c3cnc4ccccn34)c2)no1 [Compound I-360] | – | – | ≥ 7.30
41 | Cc1ccc(-c2noc(C3(O)CC(F)(F)C3)n2)cc1NC(=O)c1cnc2ccccn12 [Compound I-380] | 2.34 | 10.9 10^−6 cm/s | –
42 | Cc1ccc(-c2noc(C3CC(F)C3)n2)cc1NC(=O)c1cnc2ccccn12 (stereo not drawn) [Compound I-381] | 0.55 | 5.95 10^−6 cm/s | –
43 | Cc1ccc(-c2noc([C@H]3C[C@@H]3F)n2)cc1NC(=O)c1cnc2ccc(C#N)cn12 [Compound I-384] | 0.88 | 17.9 10^−6 cm/s | –
44 | Cc1ccc(-c2noc(C3CC(C)(F)C3)n2)cc1NC(=O)c1cnc2ccccn12 (stereo not drawn) [Compound I-387] | 0.48 | 7.59 10^−6 cm/s | –
